Reference: a melting point compilation (Tetko et al.; mined from patent text by program, amines drawn as free bases though some values may be those of a salt)

SMILES | melting point
C=C(C)COc1ccc(Br)cc1CN(CC)c1ccc(C(=O)NS(=O)(=O)c2ccccc2)cn1 | 193 °C
CCOP(=O)(Cc1ccc2cc(CP(=O)(OCC)OCC)ccc2c1)OCC | 151 to 153 °C
CN1C(=O)N2CCSC2(C)C1=O (centres undefined) | 67 to 68 °C
COC(=O)CNC(=O)[C@H](CSC(=O)c1ccccc1)NC(=O)CNC(=S)CC(=O)c1ccccc1 | 181 to 183 °C
O=C1CC(c2ccco2)Cc2occ(C(F)(F)F)c21 (centres undefined) | 94 to 95 °C
CC(C)C(=O)NC[C@H]1CN(c2ccc3c(c2)CCCc2cnn(C(=O)C(C)C)c2-3)C(=O)O1 | 75 to 80 °C
O=C1N(Cc2ccc(C(F)F)o2)c2ccccc2C12COc1cc3c(cc12)OCCO3 (centres undefined) | 173 to 175 °C
CCOC(=O)C(C)CSCC(NC(=O)CCC(N)C(=O)O)C(=O)NCC(=O)O (centres undefined) | 193 to 194 °C
C#Cc1cc(Cl)cc(Cl)c1 | 80 to 81.5 °C
c1ccc(CN2CCC(Nc3ccc4[nH]ncc4c3)CC2)cc1 | 150 to 152 °C
COC(=O)/C=C/c1cc([N+](=O)[O-])cn1C | 146 to 147 °C
CC(CNC(=O)c1cccc(Oc2ccccc2)c1)N(O)C(N)=O (centres undefined) | 189 to 190 °C
Oc1noc2ncccc12 | 258 °C
COc1coc2cc(NS(C)(=O)=O)c(Oc3ccccc3)cc2c1=O | 164 to 166 °C
CC1(C)CCc2cc(C(=O)c3ccc4cc(C(=O)O)ccc4c3)ccc2O1 | 269 °C
CCOC(=O)CCCCc1oc(=O)[nH]c1-c1ccc(Cl)cc1 | 143 to 144 °C
CCP(=O)(OC)C(O)[C@H](CC1CCCCC1)NC(=O)[C@H](CC(C)C)NC(=O)[C@H](Cc1ccccc1)NC(=O)C1CCCC1 (some centres undefined) | 155 to 165 °C
O=C(Nc1ccc(C(=O)N2Cc3cccn3Cc3ccccc32)cc1)c1cccnc1Oc1ccc(Cl)cc1 | 211 to 212 °C
CCOC(=O)c1cnn(-c2cccc(Cl)c2)c1N | 115 to 117 °C
COC(=O)c1c(C(=O)OC)c(-c2ccc(OC)c(OC)c2)c2cc3c(cc2c1O)OCO3 | 158 to 159 °C

SMILES | melting point
Nc1ccccc1C(=O)Nc1ccc(Br)c(C(F)(F)F)c1 | 142 to 144 °C
CC(=O)OCc1ccc(C#Cc2ccc3c(c2)C(C)(C)CCC3(C)C)cc1 | 136 to 139 °C
NC(=O)c1cc(OCCNCC(O)COc2ccc(CCOCC3CC3)cc2)ccc1O (centres undefined) | 149 to 150 °C
O=C1CCC(N2Cc3c(OCc4ccc(CN5CCc6cc(F)ccc6C5)cc4)cccc3C2=O)C(=O)N1 (centres undefined) | 123 to 125 °C
O=C(O)/C=C1\Cc2ccccc2C1=O | 201 to 203 °C
Nc1sc2c(c1C(=O)c1ccccc1)CCSC2 | 92 to 95 °C
Cc1c(NCc2ccccc2)c2c(c3c1C(c1ccc(C(C)C)cc1)CO3)CCC2 (centres undefined) | 95 to 96 °C
CCN(CC)c1ccc(C2(CNC(=O)Nc3c(C(C)C)cccc3C(C)C)CCCC2)cc1 | 138 to 140 °C
NC(=O)c1nnsc1NCCCCCCCCCCCCCCc1ccccc1 | 79 to 81 °C
CCOC(=O)C[C@@H]1C(=O)N(S(=O)(=O)c2ccc(OC)cc2)C=C[C@@H]1c1ccco1 | 98 to 100 °C
c1ccc(C2=Nc3ccccc3OC2)cc1 | 108 to 111 °C
O=Cc1nn(-c2ccc([N+](=O)[O-])cc2)c2c1CCC2 | 209 to 210 °C
Oc1ccc(OCc2ccccc2)cc1F | 67 °C
CCC1(CC)OC(=O)Nc2ccc(/C(=C/C#N)C(C)C)cc21 | 138 to 140 °C
COc1cc(CBr)ccc1-c1ccccc1 | 187 to 189 °C
CCc1nnc(N2CCN(c3ccc(N4CC(CNC(C)=O)OC4=O)cc3F)CC2)s1 (centres undefined) | 237 to 238 °C
O=Cc1ccccc1C=C1c2ccccc2CCc2ccccc21 | 199 °C
NC(=O)[C@H](CO)NC(=O)c1cccc(NS(=O)(=O)CC2CN(C(c3ccc(Cl)cc3)c3ccc(Cl)cc3)C2)c1 | 245 to 247 °C
CC(C)(C)OC(=O)Nc1ccc(-c2ccc(OCc3ccccc3)nc2)cc1N | 176 to 177 °C
